Measured values from US20220235325A1, “STIMULATION OF DENDRITIC CELL ACTIVITY BY HOMOTAURINE AND ANALOGUES THEREOF” (Therapeutic Solutions International, Inc., priority 2021, published 2022).

What was measured:
[1] = test system: interferon gamma production; assay: T cell activity of PBMC plated with StemVacs dendritic cells (ELISA of interferon gamma after phytohemagglutinin); format: cell-based; details: 10 micrograms/ml; PBMC plus StemVacs; 5 micrograms per ml phytohemagglutinin; 12, 24, 36 hrs (FIG. 2)
Description: Peripheral blood mononuclear cells where obtained by ficoll centrifugation and plated with […] umbilical cord derived dendritic cells. […] was generated by culture of umbilical blood adherent cells with interleukin 4 and GM-CSF for 7 days with maturation step induced by 24 hour culture TLR agonist. Assessment of T cell activity was performed subsequent to culture of cells with taurine (10 micrograms/ml) or homotaurine (10 micrograms/ml) for the indicated timepoints. T cell activity was assessed by ELISA quantification of interferon gamma production after stimulation with 5 micrograms per ml of phytohemagglutinin.

[2] = test system: NK target cell line; assay: Natural killer cell activity of PBMC plated with StemVacs dendritic cells (flow cytometry Promega cytotoxicity assay); format: cell-based; details: 10 micrograms/ml; PBMC plus StemVacs umbilical cord derived dendritic cells; 12, 24, 36 hrs (FIG. 1)
Description: Peripheral blood mononuclear cells where obtained by ficoll centrifugation and plated with StemVacs umbilical cord derived dendritic cells. StemVacs was generated by culture of umbilical blood adherent cells with interleukin 4 and GM-CSF for 7 days with maturation step induced by 24 hour culture TLR agonist. Assessment of natural killer cell activity was performed subsequent to culture of cells with taurine (10 micrograms/ml) or homotaurine (10 micrograms/ml) for the indicated timepoints. Cytotoxicity against NK target cell line was performed using the flow cytometry Promega assay.

[3] = test system: monocytes; details: cited from earlier work
[4] = monocytes from human peripheral blood

SMILES | Ability of StemVacs to stimulate T cell activity (interferon gamma production) [1] | Ability of StemVacs to stimulate NK activity (cytotoxicity against NK target cell line) [2] | FcgammaR-mediated cytokine production and antibody-dependent cellular cytotoxicity by monocytes ([3]; 12 hour exposure) | Expression of ADCC associated receptors FcgammaRI, FcgammaRIIa and common gamma-subunit [3, 4] | Expression of the inhibitory FcgammaRIth molecule [3, 4]
NCCCS(=O)(=O)O [Homotaurine, homotaurine] | Increases Ability of StemVacs to Stimulate T Cell Activity | Increases Ability of StemVacs to Stimulate NK Activity |  |  | 
CCOCc1nc2c(N)nc3ccccc3c2n1CC(C)(C)O [R-848] |  |  | increased | upregulation | profound downregulation
